The values that follow come from patent publication US6562978B1, “Cyclic amine compounds as CCR5 antagonists” (Takeda Chemical Industries, Ltd., priority 1999, dated 2003).

The test concerns the target T1, human CCR5 (Homo sapiens, UniProt P51681).
T1 construct: expressed in transfected cells; whole cells in the well
Kind of test: CCR5 binding assay: inhibition of [125I]-RANTES binding to CHO/CCR5 cells. Conditions: 1.0 μM test compound, 100 pM [125I]-RANTES, room temperature 40 minutes; for inhibition at 1 µM: read-out: Inhibition Rate (%) at 1.0 μM. The method, then:
(1) Cloning of Human CCR5 Chemokine Receptor
Cloning of CCR5 gene was carried out by PCR (polymerase chain reaction) from human spleen cDNA. With using 0.5 ng of spleen cDNA (Toyobo, QUICK-Clone cDNA) as template, PCR was performed in DNA Thermal Cycler 480 (Perkin-Elmer) (reaction conditions: 30 cycles of 95° C. for 1 minute, 60° C. for 1 minute, and 75° C. for 5 minutes) by adding primer set, 5′-[…]-3′ (25 pmol) and 5′-[…]-3′ (25 pmol), which were designed referring to nucleotide sequence of CCR5 gene reported by Samson et al. (Biochemistry, 35(11), 3362-3367 (1996)) and by using TaKaRa EX Taq (Takara Shuzo). The resultant PCR product was subjected to agarose gel electrophoresis to collect about 1.0 kb DNA fragment, which was subjected to Original TA Cloning Kit (Funakoshi) to carry out cloning of CCR5 gene.
(2) Preparation of Plasmid for Expression of Human […]
The plasmid obtained in the above (1) was digested with restriction enzymes XbaI (Takara Shuzo) and BamHI (Takara Shuzo) and subjected to agarose gel electrophoresis to collect about 1.0 kb DNA fragment. The DNA fragment was mixed with plasmid pcDNA3.1 (Funakoshi) for expression in animal cells, said plasmid being digested with XbaI and BamHI, and they were ligated with DNA Ligation Kit Ver.2 (Takara Shuzo). The resulting plasmid was subjected to transformation of competent cell of E. coli JM109 (Takara Shuzo) to obtain plasmid pCKR5.
(3) Introduction of Plasmid for Expression of Human CCR5 into CHO-K1 Cell and Expression of said Plasmid in CHO-KY Cell
CHO-K1 cells were grown in 750 ml of tissue culture flask (Becton Dickinson) using Ham's F12 medium (Nihon Pharmaceutical) containing 10% fetal calf serum (Life Tech Oriental) and took off with 0.5 g/L trypsin-0.2 g/L EDTA (Life Tech Oriental). The cells were washed with PBS (Life Tech Oriental), centrifuged (1000 rpm, 5 minutes), and suspended in PBS. With using Gene Pulser (Bio-Rad Laboratories), DNA was introduced into the cells under the conditions shown below. That is, to the cuvette of 0.4 cm gap were added 8×10^6 cells and 10 μg of plasmid pCKR5 for expression of human CCR5, and electroporation was carried out under 0.25 kV of voltage and […] of capacitance. The cells were transferred into Ham's F12 medium (Nihon Pharmaceutical) containing 10% fetal calf serum, and cultivated for 24 hours. The cells were again took off and centrifuged, and suspended in Ham's F12 medium (Nihon Pharmaceutical) containing 10% fetal calf serum and 500 μg/ml of geneticin (Life Tech Oriental). The suspension was diluted to give 10^4 cells/ml of the suspension, which was inoculated on 96 well plate (Becton Dickinson) to give geneticin resistant cells. The resulting geneticin resistant cells were cultivated in 96 well plate (Becton Dickinson), and cells expressing CCR5 were selected from the geneticin resistant cells. That is, in assay buffer (Ham's F12 medium containing 0.5% BSA and 20 mM HEPES (Wako Pure Chemical, pH7.2) to which was added 200 pM of [^125I]-RANTES (Amersham) as ligand, binding reaction was carried out at room temperature for 40 minutes, and the buffer was washed with cooled PBS. To the buffer was added 50 μl/well of 1M NaOH, and the mixture was stirred. Radioactivity was determined with γ-counter to select CHO/CCR5 cells which specifically bind to the ligand.
(4) Evaluation of Test Compounds Based on CCR5 Antagonistic Activity
The CHO/CCR5 were inoculated on 96 well microplate (5×10^4 cells/well) and cultivated for 24 hours. The medium was removed by means of suction, and to each well was added assay buffer containing Test Compound (191) and then 100 pM of [^125I]-RANTES (Amersham) as ligand. Binding assay was carried out at room temperature for 40 minutes, and assay buffer was removed by means of suction. Each well was washed twice with cooled PBS, and 200 μl of Microscint-20 (Packard Instrument, Inc.) was added to each well.

Where a name gives a salt, the structure may show the parent alone.

T1 sequence (P51681 whole entry): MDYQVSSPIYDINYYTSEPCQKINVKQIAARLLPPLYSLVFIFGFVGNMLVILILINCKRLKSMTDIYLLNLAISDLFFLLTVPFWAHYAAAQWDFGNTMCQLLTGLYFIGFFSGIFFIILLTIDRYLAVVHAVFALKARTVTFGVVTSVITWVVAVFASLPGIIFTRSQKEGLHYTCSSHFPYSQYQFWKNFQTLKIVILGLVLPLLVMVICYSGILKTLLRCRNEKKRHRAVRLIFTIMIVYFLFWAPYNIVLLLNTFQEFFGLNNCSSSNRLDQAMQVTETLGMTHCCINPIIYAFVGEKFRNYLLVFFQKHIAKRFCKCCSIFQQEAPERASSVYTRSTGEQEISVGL

As to `CCN(C1CCN(CCCN(C(=O)C2CCN(S(C)(=O)=O)CC2)c2ccc(Cl)c(Cl)c2)CC1)S(=O)(=O)c1ccc(S(C)(=O)=O)cc1` [Example 341, N-(3,4-Dichlorophenyl)-N-{3-[4-(ethyl{[4-(methylsulfonyl)phenyl]sulfonyl}amino)-1-piperidinyl]propyl}-1-(methylsulfonyl)-4-piperidinecarboxamide], the inhibition (in general, the share of the control response that was lost under treatment) at 1 µM worked out at 98%.
`CC(=O)N1CCC(C(=O)N(CCCN2CCN(Cc3ccc4c(c3)OCO4)CC2)c2cccc(Cl)c2)CC1` [Example 57, 1-Acetyl-N-(3-chlorophenyl)-N-[3-(4-piperonyl-1-piperazinyl)propyl]-4-piperidinecarboxamide Trifluoroacetate]: the inhibition at 1 µM was determined as 96%.
Still for that read-out and setting: the value for `CS(=O)(=O)N1CCC(C(=O)N(CCCN2CCC(S(=O)(=O)c3ccc(F)cc3)CC2)c2ccc(Cl)c(Cl)c2)CC1` [Example 190, N-(3,4-Dichlorophenyl)-N-{3-[4-(4-fluorophenylsulfonyl)-1-piperidinyl]propyl}-1-(methylsulfonyl)-4-piperidinecarboxamide] was 100%; that for `CC(C)S(=O)(=O)c1ccc(CC2CCN(CCCN(C(=O)C3CCN(S(C)(=O)=O)CC3)c3ccc(Cl)c(Cl)c3)CC2)cc1` [Example 384, N-(3,4-Dichlorophenyl)-N-(3-{4-[4-(isopropylsulfonyl)benzyl]-1-piperidinyl}propyl)-1-(methylsulfonyl)-4-piperidinecarboxamide] was 100%; that for `CC(=O)N1CCC(C(=O)N(CCCN2CCC(C#N)(Cc3ccccc3)CC2)c2cccc(Cl)c2)CC1` [Example 291, 1-Acetyl-N-[3-(4-benzyl-4-cyano-1-piperidinyl)propyl]-N-(3-chlorophenyl)-4-piperidinecarboxamide] was 84%.
On the same count and under the same terms, the value for `COc1ccc(CC2CCN(CCCN(C(=O)C3CCN(C(C)=O)CC3)c3ccc(Cl)c(Cl)c3)CC2)cc1` [Example 249, 1-Acetyl-N-(3,4-dichlorophenyl)-N-{3-[4-(4-methoxybenzyl)-1-piperidinyl]propyl}-4-piperidinecarboxamide] was 94%.
Turning to `CC(=O)N1CCC(C(=O)N(CCCN2CCC(Cc3ccc(-n4cnnn4)cc3)CC2)c2ccc(Cl)c(Cl)c2)CC1` [Example 300, 1-Acetyl-N-(3,4-dichlorophenyl)-N-(3-{4-[4-(1H-tetrazol-1-yl)benzyl]-1-piperidinyl}propyl)-4-piperidinecarboxamide], the inhibition at 1 µM stood at 100%.
Same read-out and setting: in the case of `CS(=O)(=O)N1CCC(NC(=O)N(CCCN2CCC(Cc3ccccc3)CC2)c2ccccc2)CC1` [Example 15, N-[3-(4-Benzyl-1-piperidinyl)propyl]-N′-[1-(methylsulfonyl)-4-piperidinyl]-N-phenylurea] it was 97%.
As for `CC(=O)N1CCC(C(=O)N(CCCN2CCC(Sc3nc4ccccc4s3)CC2)c2ccc(Cl)c(Cl)c2)CC1` [Example 224], the “Inhibition Rate (%) at 1.0 μM” value amounted to 97%.
On to `CS(=O)(=O)c1ccc(S(=O)(=O)C2CCN(CCCN(C(=O)C3CCN(S(C)(=O)=O)CC3)c3ccc(Cl)c(Cl)c3)CC2)cc1` [Example 334, N-(3,4-Dichlorophenyl)-1-(methylsulfonyl)-N-[3-(4-{[4-(methylsulfonyl)phenyl]sulfonyl}-1-piperidinyl)propyl]-4-piperidinecarboxamide], for which the inhibition at 1 µM is 100%.
Same read-out and setting: in the case of `CC(=O)N1CCC(C(=O)N(CCCN2CCC(Cc3ccc(S(N)(=O)=O)cc3)CC2)c2ccc(Cl)c(Cl)c2)CC1` [Example 243, 1-Acetyl-N-(3-{4-[4-(aminosulfonyl)benzyl]-1-piperidinyl}propyl)-N-(3,4-dichlorophenyl)-4-piperidinecarboxamide] it was 99%; in that of `CC(=O)Nc1ccc(C(=O)N2CCC(C(=O)N(CCCN3CCC(Cc4ccc(F)cc4)CC3)c3ccc(Cl)c(Cl)c3)CC2)cc1` [Example 158, 1-[4-(Acetylamino)benzoyl]-N-(3,4-dichlorophenyl)-N-{3-[4-(4-fluorobenzyl)-1-piperidinyl]propyl}-4-piperidinecarboxamide Trifluoroacetate], 97%; in that of `CC(=O)N1CCC(C(=O)N(CCCN2CCC(Nc3ccc(C#N)cc3)CC2)c2ccc(Cl)c(Cl)c2)CC1` [Example 211, 1-Acetyl-N-{3-[4-(4-cyanoanilino)-1-piperidinyl]propyl}-N-(3,4-dichlorophenyl)-4-piperidinecarboxamide], 90%.
As for `CS(=O)(=O)N1CCC(C(=O)N(CCCN2CCC(Cc3ccc(N4CCOCC4)cc3)CC2)c2ccc(Cl)c(Cl)c2)CC1` [Example 292, N-(3,4-Dichlorophenyl)-1-(methylsulfonyl)-N-{3-[4-(4-morpholinobenzyl)-1-piperidinyl]propyl}-4-piperidinecarboxamide], the inhibition at 1 µM was 97%.
Still for that read-out and setting: the value for `CS(=O)(=O)c1ccc(OC2CCN(CCCN(C(=O)C3CCN(S(C)(=O)=O)CC3)c3ccc(Cl)c(Cl)c3)CC2)cc1` [Example 374, N-(3,4-Dichlorophenyl)-1-(methylsulfonyl)-N-(3-{4-[4-(methylsulfonyl)phenoxy]-1-piperidinyl}propyl)-4-piperidinecarboxamide] was 92%; that for `CS(=O)(=O)c1ccc(CC2CCN(CCCN(C(=O)C3CCN(S(C)(=O)=O)CC3)c3ccc(Cl)c(Cl)c3)CC2)cc1` [Example 420, N-(3,4-Dichlorophenyl)-1-(methylsulfonyl)-N-(3-{4-[4-(methylsulfonyl)benzyl]-1-piperidinyl}propyl)-4-piperidinecarboxamide Hydrochloride] was 98%.
`CC(=O)N1CCC(C(=O)N(CCCN2CCC(Cc3nccs3)CC2)c2cccc(Cl)c2)CC1` [Example 168, 1-Acetyl-N-(3-chlorophenyl)-N-{3-[4-(2-thiazolylmethyl)-1-piperidinyl]propyl}-4-piperidinecarboxamide Ditrifluoroacetate]: the inhibition at 1 µM is 82%.
The same measure, in the same setting: in the case of `CC(=O)N1CCC(C(=O)N(CCCN2CCC(Cc3ccc(N4CCOCC4)cc3)CC2)c2ccc(Cl)c(Cl)c2)CC1` [Example 318, 1-Acetyl-N-(3,4-dichlorophenyl)-N-{3-[4-(4-morpholinobenzyl)-1-piperidinyl]propyl}-4-piperidinecarboxamide] it was 100%; in that of `CC(=O)N1CCC(C(=O)N(CCCN2CCC(n3nnc4ccccc43)CC2)c2cccc(Cl)c2)CC1` [Example 289, 1-Acetyl-N-{3-[4-(1H-1,2,3-benzotriazol-1-yl)-1-piperidinyl]propyl}-N-(3-chlorophenyl)-4-piperidinecarboxamide], 83%.
The same measure, in the same setting: in the case of `CS(=O)(=O)N1CCC(C(=O)N(CCCN2CCC(Cc3ccc(S(=O)(=O)N4CCOCC4)cc3)CC2)c2ccc(Cl)c(Cl)c2)CC1` [Example 356, N-(3,4-Dichlorophenyl)-1-(methylsulfonyl)-N-(3-{4-[4-(4-morpholinylsulfonyl)benzyl]-1-piperidinyl}propyl)-4-piperidinecarboxamide] it was 100%; in that of `CS(=O)(=O)N1CCC(C(=O)N(CCCN2CCC(Cc3ccc(S(N)(=O)=O)cc3)CC2)c2ccc(Cl)c(Cl)c2)CC1` [Example 244, N-(3-{4-[4-(Aminosulfonyl)benzyl]-1-piperidinyl}propyl)-N-(3,4-dichlorophenyl)-1-(methylsulfonyl)-4-piperidinecarboxamide], 100%.
